Measured values: ChEMBL document CHEMBL4304790, “Successful Strategies for Mitigation of a Preclinical Signal for Phototoxicity in a DGAT1 Inhibitor” (ACS Med Chem Lett, 2019)
≈ marks a conversion by molar mass, not a printed value. Where a name gives a salt, the structure may show the parent alone. Values belong to the molecule of their own block, whether it stands above or below them. Calls of active or inactive are those of the source. The rule behind the calls is not given here.

Assays:
[1] = target: T1, Diacylglycerol O-acyltransferase 1 (Homo sapiens) (UniProt O75907); assay: (§1) Inhibition of recombinant human his-tagged DGAT1 expressed in Sf9 insect cells using oleoyl-CoA and diolein as substrates incubated for 30 mins by LC/MS/MS analysis
T1 sequence (whole entry): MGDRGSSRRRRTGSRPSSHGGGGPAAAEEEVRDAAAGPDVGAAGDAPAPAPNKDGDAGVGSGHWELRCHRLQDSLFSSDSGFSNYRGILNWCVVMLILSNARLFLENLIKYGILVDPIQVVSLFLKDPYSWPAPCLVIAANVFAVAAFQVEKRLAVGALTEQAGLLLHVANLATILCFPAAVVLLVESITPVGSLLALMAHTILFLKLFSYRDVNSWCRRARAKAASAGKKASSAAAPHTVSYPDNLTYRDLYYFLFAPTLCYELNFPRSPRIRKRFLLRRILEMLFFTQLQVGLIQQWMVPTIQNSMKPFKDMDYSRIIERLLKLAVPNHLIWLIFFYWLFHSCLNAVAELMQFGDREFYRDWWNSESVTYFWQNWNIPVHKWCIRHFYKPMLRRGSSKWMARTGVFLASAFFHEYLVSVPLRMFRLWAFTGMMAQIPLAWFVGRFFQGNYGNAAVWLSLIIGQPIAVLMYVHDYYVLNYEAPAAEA

[2] = target: T2, Diacylglycerol O-acyltransferase 1 (Mus musculus) (UniProt Q9Z2A7); assay: (§2) Inhibition of DGAT1 in mouse C2C12 cells assessed as reduction in intracellular triglyceride production incubated for 2 hrs in presence of BSA-complexed oleate by LC/MS/MS analysis; format: cell-based
T2 sequence (whole entry): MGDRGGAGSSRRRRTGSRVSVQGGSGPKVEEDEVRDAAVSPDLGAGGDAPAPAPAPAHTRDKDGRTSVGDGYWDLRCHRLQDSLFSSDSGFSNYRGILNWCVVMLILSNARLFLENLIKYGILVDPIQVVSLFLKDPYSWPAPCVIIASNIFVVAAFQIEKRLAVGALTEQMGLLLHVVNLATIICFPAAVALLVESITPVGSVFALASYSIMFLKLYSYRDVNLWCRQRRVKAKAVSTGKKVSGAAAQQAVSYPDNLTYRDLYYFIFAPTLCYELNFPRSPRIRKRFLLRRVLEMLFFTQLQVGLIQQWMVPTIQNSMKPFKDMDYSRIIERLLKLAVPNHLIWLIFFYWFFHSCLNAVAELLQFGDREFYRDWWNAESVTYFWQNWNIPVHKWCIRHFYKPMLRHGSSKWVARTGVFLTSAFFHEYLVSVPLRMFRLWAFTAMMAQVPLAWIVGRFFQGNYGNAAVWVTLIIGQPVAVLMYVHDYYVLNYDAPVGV

[3] = target: T3, Diacylglycerol O-acyltransferase 1 (Mus musculus, UniProt Q9Z2A7); assay: as §2; format: cell-based
T3 sequence (Q9Z2A7 whole entry): T2 sequence (whole entry)

[4] = Photo irritation factor, ratio of IC50 for cytotoxicity against BALB/c mouse 3T3 cells pretreated for 1 hr prior to 50 mins incubation in dark conditions followed by further incubation in DMEM medium for 20 to 22 hrs to IC50 for cytotoxicity against BALB/c mouse 3T3 cells pretreated for 1 hr prior to irradiation with UVA for 50 mins followed by further in DMEM medium incubation for 20 to 22 hrs …; format: cell-based; details: BALB/c 3T3 cells
[5] = Clearance in Sprague-Dawley rat at 0.5 mg/kg, iv measured upto 24 hrs; format: ADME, organism-based; details: in vivo
[6] = Protein binding in rat plasma; format: ADME, cell-free; details: read-out: PPB (converted)
[7] = Permeability across basolateral to apical side in human Caco2 cells; format: ADME, cell-based; details: Caco-2, read-out: permeability
[8] = AUC (0 to 24 hrs) in Sprague-Dawley rat at 1.5 mg/kg, po measured upto 24 hrs; format: ADME, organism-based; set-up: time < 24 hr, dose 1.5 mg/kg, route oral; details: in vivo
[9] = Half life in Sprague-Dawley rat at 0.5 mg/kg, iv measured upto 24 hrs; format: ADME, organism-based; details: in vivo
[10] = AUC (0 to 24 hrs) in Sprague-Dawley rat at 0.5 mg/kg, iv measured upto 24 hrs; format: ADME, organism-based; set-up: time < 24 hr, dose 0.5 mg/kg, route intravenous; details: in vivo
[11] = Volume of distribution in Sprague-Dawley rat at 0.5 mg/kg, iv measured upto 24 hrs; format: ADME, organism-based; details: in vivo
[12] = Drug uptake in plasma of Sprague-Dawley rat lipid bolus model at 5 mg/kg, po administered via gavage 4 hrs prior to lipid challenge and measured upto 8 hrs post compound dose by LC-MS/MS analysis; format: ADME, organism-based; details: in vivo
[13] = Toxicity in preclinical models assessed as GI tolerability
[14] = Permeability across apical to basolateral side in human Caco2 cells; format: ADME, cell-based; details: Caco-2, read-out: permeability
[15] = species: Rattus norvegicus; details: Sprague-Dawley, 5 mg/kg
[16] = Oral bioavailability in Sprague-Dawley rat at 1.5 mg/kg measured upto 24 hrs; format: ADME, organism-based; details: in vivo
[17] = Tmax in Sprague-Dawley rat at 1.5 mg/kg, po measured upto 24 hrs; format: ADME, organism-based; details: in vivo
[18] = Cmax in Sprague-Dawley rat at 1.5 mg/kg, po measured upto 24 hrs; format: ADME, organism-based; set-up: dose 1.5 mg/kg, route oral; details: in vivo
[19] = Solubility of compound at pH 6.8; format: physicochemical; details: buffer
[20] = Lipophilicity, log D of the compound at pH 7.4; format: physicochemical; details: buffer
[21] = Dissociation constant, pKa of compound; format: physicochemical
[22] = Tmax in Sprague-Dawley rat at 5 mg/kg, po measured upto 24 hrs; format: ADME, organism-based; details: in vivo
[23] = target: T4, Diacylglycerol O-acyltransferase 1 (Homo sapiens, UniProt O75907); assay: as §1
T4 sequence (O75907 whole entry): T1 sequence (whole entry)

[24] = Half life in Sprague-Dawley rat at 1 mg/kg, iv measured upto 24 hrs; format: ADME, organism-based; details: in vivo
[25] = Efflux ratio of permeability across basolateral to apical side over apical to basolateral side in human Caco2 cells; format: ADME, cell-based; details: Caco-2
[26] = AUC (0 to 24 hrs) in Sprague-Dawley rat at 5 mg/kg, po measured upto 24 hrs; format: ADME, organism-based; set-up: dose 5 mg/kg, time < 24 hr, route oral; details: in vivo
[27] = Half life in po dosed human plasma administered as single dose; format: ADME, organism-based
[28] = Clearance in Sprague-Dawley rat at 1 mg/kg, iv measured upto 24 hrs; format: ADME, organism-based; details: in vivo
[29] = Oral bioavailability in Sprague-Dawley rat at 5 mg/kg measured upto 24 hrs; format: ADME, organism-based; details: in vivo
[30] = Cmax in Sprague-Dawley rat at 5 mg/kg, po measured upto 24 hrs; format: ADME, organism-based; set-up: dose 5 mg/kg, route oral; details: in vivo
[31] = Volume of distribution in Sprague-Dawley rat at 1 mg/kg, iv measured upto 24 hrs; format: ADME, organism-based; details: in vivo
[32] = AUC (0 to 24 hrs) in Sprague-Dawley rat at 1 mg/kg, iv measured upto 24 hrs; format: ADME, organism-based; set-up: dose 1 mg/kg, time < 24 hr, route intravenous; details: in vivo
[33] = system: Rattus norvegicus; assay: Antihyperlipidemic activity in Sprague-Dawley rat lipid bolus model assessed as reduction in plasma triglyceride excursion at 5 mg/kg, po administered via gavage 4 hrs prior to lipid challenge and measured upto 8 hrs post compound dose by GPO-Trinder method relative to control; format: functional

SMILES: O=C(O)C[C@H]1CC[C@H](c2ccc(-c3ccc(Nc4nnc(C5CCC5)s4)cn3)cc2)CC1
EC50 [3]: 8 nM

SMILES: COc1ccc2nc(Nc3ccc(-c4ccc([C@H]5CC[C@H](CC(=O)O)CC5)cc4)nc3)oc2c1
selectivity ratio [4]: 17

SMILES: Cc1nnc(Nc2ccc(-c3ccc([C@H]4CC[C@H](CC(=O)O)CC4)cc3)nc2)o1
EC50 [3]: 206 nM

SMILES: O=C(O)C[C@H]1CC[C@H](c2ccc(-c3ccc(Nc4ccc(C(F)(F)F)nc4)cn3)cc2)CC1
Tmax [22]: 0.7 h
fraction unbound [6]: 0.003
Papp B→A [7]: 2.3 ×10⁻⁶ cm/s
IC50 [23]: 55 nM
half-life [24]: 5.1 h
EC50 [3]: 71 nM
efflux ratio [25]: 0.28
Activity [13]: Non-Toxic
AUC(0-t) at 24 h [26]: 190 µM·h
half-life [27]: 125 h
Papp A→B [14]: 8.1 ×10⁻⁶ cm/s
clearance [28]: 1 mL/min/kg
pKa [21]: 4.1
bioavailability [29]: 83%
logD [20]: 3.6
Cmax [30]: 42 µM
Vd [31]: 0.1 L/kg
AUC(0-t) at 24 h [32]: 46 µM·h
selectivity ratio [4]: 56
inhibition in vivo at 5 mg/kg [33]: 50 to 70%
solubility [19]: < 5 µM

SMILES: O=C(O)CC12CCC(c3ccc(-c4ccc(Nc5nnc(C6CCC6)o5)cn4)cc3)(CC1)CO2
pKa [21]: 3.9
logD [20]: 1.5

SMILES: CN(C)CCCN1c2ccccc2Sc2ccc(Cl)cc21 [CHLORPROMAZINE HYDROCHLORIDE]
selectivity ratio [4]: > 6

Further lines, with some results ahead:

inhibition [1]: Active
inhibition [2]: Active
SMILES: CC(C)(C)c1nnc(Nc2ccc(-c3ccc([C@H]4CC[C@H](CC(=O)O)CC4)cc3)nc2)o1

EC50 [3]: 8 nM
SMILES: CCc1nc(C)c(C(=O)Nc2ccc(-c3ccc([C@H]4CC[C@H](CC(=O)O)CC4)cc3)nc2)o1
selectivity ratio [4]: 1

clearance [5]: 0.2 mL/min/kg
fraction unbound [6]: < 0.01
Papp B→A [7]: 7.7 ×10⁻⁶ cm/s
AUC(0-t) at 24 h [8]: 180 µM·h
half-life [9]: 20 h
AUC(0-t) at 24 h [10]: 51.4 µM·h
Vd [11]: 0.3 L/kg
Drug uptake [12]: Active
Papp A→B [14]: 18.3 ×10⁻⁶ cm/s
bioavailability [16]: > 100%
Tmax [17]: 3 h
Cmax [18]: 28 µM
solubility [19]: 13 µM (≈ 6.17 µg/mL)
SMILES: CCc1nc(C)c(C(=O)Nc2ccc(-c3ccc(C45CCC(CC(=O)O)(CC4)OC5)cc3)cc2)o1
Activity [13]: Non-Toxic
inhibition [15]: Active

EC50 [3]: 12 nM
logD [20]: 2.8
SMILES: O=C(O)C[C@H]1CC[C@H](c2ccc(-c3ccc(Nc4nnc(C5CCC5)o4)cn3)cc2)CC1

EC50 [3]: 2300 nM
pKa [21]: 3.8
logD [20]: 0.7
SMILES: CC(C)c1nnc(Nc2ccc(-c3ccc(N4CCC(CC(=O)O)CC4)cc3)nc2)o1

EC50 [3]: 27 nM
SMILES: CCc1nnc(Nc2ccc(-c3ccc([C@H]4CC[C@H](CC(=O)O)CC4)cc3)nc2)o1

clearance [5]: 3.5 mL/min/kg
fraction unbound [6]: < 0.01
Papp B→A [7]: 11.8 ×10⁻⁶ cm/s
AUC(0-t) at 24 h [8]: 25.8 µM·h
half-life [9]: 3.2 h
AUC(0-t) at 24 h [10]: 5.16 µM·h
Vd [11]: 0.7 L/kg
Drug uptake [12]: Active
Papp A→B [14]: 5.9 ×10⁻⁶ cm/s
logD [20]: 2.4
bioavailability [16]: > 100%
Tmax [17]: 1 h
Cmax [18]: 6.1 µM
solubility [19]: < 5 µM
SMILES: O=C(O)CC12CCC(c3ccc(-c4ccc(Nc5nnc(C6CCC6)o5)cc4)cc3)(CC1)CO2
Activity [13]: Non-Toxic
inhibition [15]: Active
